For series [1], the system named is ECV-304. The series is described as follows: Cytotoxicity against human ECV304 cells after 72 hrs by Hoechst 33258 staining based fluorescence assay. It is filed as functional, cell-based. Conditions: ECV-304, 72 h.
Series [2] can be described thus: Reduction in surface tension in 0.1 M PBS after 10 mins by Wilhelmy plate method using tensitometer. It is filed as physicochemical.
Series [3] in a line: Critical micellar concentration of the compound in 0.1 M PBS after 10 mins by Wilhelmy plate method using tensitometer. Conditions: buffer. It is filed as physicochemical.
The subject of series [4] is ECV-304. The series is described as follows: Membranolytic activity in human ECV304 cells assessed as leakage of intracellular lactate dehydrogenase after 2 hrs by spectrophotometry. In kind it is functional, cell-based. As to conditions: ECV-304, 2 h.

As to `CC1(C)[C@@H](O)CC[C@]2(C)[C@H]3C(=O)C=C4[C@@H]5C[C@@](C)(C(=O)O)CC[C@]5(C)CC[C@@]4(C)[C@]3(C)CC[C@@H]12` [ENOXOLONE], the figures for the IC50 with ECV-304 [1] and with ECV-304 [4] were 101 µM and 292 µM, respectively. For the same compound, the concentration for a half-maximal effect (EC50) (usually the concentration that produces a half-maximal response) at 10 min in series [2] was found to be 16 µM. The compound also gave a CMC in series [3] of 106 µM.
With `C[C@@H]1CC[C@@]2(OC1)O[C@H]1[C@@H](O)[C@H]3[C@@H]4CC[C@H]5C[C@@H](O[C@@H]6O[C@H](CO)[C@H](O[C@@H]7O[C@H](CO)C(O)[C@H](O[C@@H]8OC[C@@H](O)[C@H](O)[C@H]8O)[C@H]7O[C@@H]7O[C@H](CO)[C@H](O)[C@H](O[C@@H]8O[C@H](CO)[C@@H](O)[C@H](O)[C@H]8O)[C@H]7O)[C@H](O)[C@H]6O)[C@H](O)C[C@]5(C)[C@H]4CC[C@]3(C)[C@H]1[C@@H]2C` (some centres undefined) [DIGITONIN], the IC50 (usually the midpoint of a concentration-inhibition curve) is 13 µM in the series on ECV-304 [1] and 15 µM in the series on ECV-304 [4]. This compound displayed an EC50 at 10 min in series [2] of 8 µM. The CMC in series [3] amounted to 163 µM.
For `CC(C)=CCC[C@](C)(O)[C@H]1CC[C@]2(C)[C@@H]1[C@H](O)C[C@@H]1[C@@]3(C)CC[C@H](O)C(C)(C)[C@@H]3[C@@H](O[C@@H]3O[C@H](CO)[C@@H](O)[C@H](O)[C@H]3O[C@@H]3O[C@@H](C)[C@H](O)[C@@H](O)[C@H]3O)C[C@]12C` [GINSENOSIDE RG2], the IC50 is above 127 µM with ECV-304 [1] and 783 µM with ECV-304 [4]. Further, in series [2], a half-maximal effect (EC50 at 10 min) was put at 25 µM. This compound came in with a CMC in series [3] above 127 µM.
`C[C@@H]1O[C@@H](O[C@H]2[C@H](O[C@H]3CC[C@@]4(C)[C@@H](CC[C@]5(C)[C@@H]4CC=C4[C@@H]6CC(C)(C)CC[C@]6(C(=O)O[C@@H]6O[C@H](CO[C@@H]7O[C@H](CO)[C@@H](O[C@@H]8O[C@@H](C)[C@H](O)[C@@H](O)[C@H]8O)[C@H](O)[C@H]7O)[C@@H](O)[C@H](O)[C@H]6O)CC[C@]45C)[C@]3(C)CO)OC[C@H](O)[C@@H]2O)[C@H](O)[C@H](O)[C@H]1O` [KALOPANAXSAPONIN B]: the IC50 in the series on ECV-304 [1] and in the series with ECV-304 [4] was above 164 µM throughout. The compound also returned an EC50 at 10 min in series [2] of 10 µM. In series [3], this compound registered a CMC of 82 µM.
In the case of `CC[C@H](CC[C@@H](C)[C@H]1CC[C@H]2[C@@H]3CC=C4C[C@@H](O)CC[C@]4(C)[C@H]3CC[C@]12C)C(C)C` [BETA-SITOSTEROL], the IC50 in the series with ECV-304 [1] is 61 µM; in the series on ECV-304 [4], 472 µM. In series [2], this compound returned an EC50 at 10 min of 19 µM. The same compound had a CMC in series [3] of 241 µM.
The matching figures for `C[C@@H]1O[C@@H](O[C@H]2[C@H](O[C@H]3CC[C@@]4(C)[C@@H](CC[C@]5(C)[C@@H]4CC=C4[C@@H]6CC(C)(C)CC[C@]6(C(=O)O)CC[C@]45C)[C@]3(C)CO)OC[C@H](O)[C@@H]2O)[C@H](O)[C@H](O)[C@H]1O` [ALPHA-HEDERIN]: 35 µM, 29 µM, 4 µM and 13 µM.

(Values after ChEMBL document CHEMBL2021870, “Saponins can perturb biologic membranes and reduce the surface tension of aqueous solutions: a correlation?” (Bioorg Med Chem, 2012).)
